≈ marks a conversion by molar mass, not a printed value. Read-outs that look alike come from different tables or passages of the source.

One series addresses T1, human GPR119 receptor (Homo sapiens, UniProt Q8TDV5).
T1 construct: host or cells: GeneBLAzer T-Rex GPR 119 CHO-K1 DA cells (CHO-K1)
T1 sequence (Q8TDV5 1-335): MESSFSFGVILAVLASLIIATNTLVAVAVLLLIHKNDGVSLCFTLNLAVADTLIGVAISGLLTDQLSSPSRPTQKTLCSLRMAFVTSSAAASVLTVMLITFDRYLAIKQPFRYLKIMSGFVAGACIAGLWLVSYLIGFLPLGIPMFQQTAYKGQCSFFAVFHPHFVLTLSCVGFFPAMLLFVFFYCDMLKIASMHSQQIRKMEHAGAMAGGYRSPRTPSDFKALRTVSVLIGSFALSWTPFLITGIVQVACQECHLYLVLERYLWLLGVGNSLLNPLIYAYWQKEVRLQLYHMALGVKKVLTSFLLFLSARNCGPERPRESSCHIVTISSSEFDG
The series is described as follows: Activity test for human GPR119 receptor (GeneBLAzer T-Rex GPR 119 CHO-K1 DA cells). It counts as cell-based. Particulars: for EC50: human GPR119 receptor expressing CHO-K1 cells, 5 hours treatment, read-out: hGPR119 EC50; for activity for human GPR119 receptor (in words): judgement on the EC50 values of Table 11. Here is the method: 1. Human GPR119 Receptor Cell
As a human GPR119 receptor expression cell for this test, the cell line “GeneBLAzer™ T-Rex GPR 119 CHO-K1 DA cells” that is commercially available from Invitrogen, was used. The cell was incubated in the DMEM media containing 1% dialyzed fetal bovine serum etc. The cell incubator was kept at constant temperature and constant humidity of 37° C., 5% CO2.
2. Activity Test for Human GPR119 Receptor
The human GPR119 receptor expressing cell was used to this test. Each of test compounds was added to be final concentrations of 0.1, 1, 10 μM in 96 well and tested in duplicate. A fixed amount of cell was added to each well of 96 well separately, and then treated with the test compound for 5 hours. After treatment of color development agent for 2 hours, the fluorescence value was determined with plate reader. To the luminous wavelength of control well, which was not treated with the sample, but in which only a vehicle […] was contained, the ratio of the luminous wavelength of test well, which was treated with the sample, was calculated, and then converted to obtain EC50 value.
3. Statistical Processing
All the results were expressed as mean±SD, and each test groups and the control group were compared using student's t-test to adjudge the effects of each test groups.

Series [1] can be described thus: Solubility test of GPR 119 agonist compounds (Nephelostar). Particulars: aqueous with cosolvent or surfactant or cyclodextrin, kinetic from dmso stock. In kind it is physicochemical. Here is the method: 1. Method of Solubility Test
Each test compounds were dissolved in 5% DMSO aqueous solution as a solvent at several concentrations. When a laser was irradiated to the solution, the particles, which are not dissolved in the solvent, scatter the light. The level of the scattered light is dependent to the number of the particles, so the solubility of the test compound in the solution can be determined using the relationship. As the test equipment, Nephelostar was used.

The mark [2] stands for this setting: pH 2, 5% DMSO aqueous solution, read-out: Solubility pH 2.
[3] abbreviates: pH 4, 5% DMSO aqueous solution, read-out: Solubility pH 4.
[4] abbreviates: pH 6, 5% DMSO aqueous solution, read-out: Solubility pH 6.
[5] abbreviates: pH 8, 5% DMSO aqueous solution, read-out: Solubility pH 8.

For the compound `CCC(F)(CC)CN1CCC(COc2ccc(-c3ccc(C(=O)N4C[C@H](O)C[C@H]4C(N)=O)cc3F)cc2)CC1` [Compound 1205], the EC50 (as a rule, the concentration giving half of the maximal effect) at human GPR119 receptor stood at 2 nM. Also, the solubility – broadly, the dissolved amount per volume that the medium holds – was over 271 µg/mL in series [1] (setting [2]), over 271 µg/mL in series [1] (setting [3]), 157 µg/mL (≈ 289 µM) in series [1] (setting [4]) and 55 µg/mL (≈ 101 µM) in series [1] (setting [5]).
Turning to `CC(C)(CN1CCC(COc2ccc(-c3ccc(C(=O)N4C[C@H](O)C[C@H]4C(N)=O)c(F)c3)nc2)CC1)C(F)(F)F` [Compound 1268, (2S,4R)-1-(2-fluoro-4-(5-((1-(3,3,3-trifluoro-2,2-dimethylpropyl)piperidin-4-yl)methoxy)pyridin-2-yl)benzoyl)-4-hydroxypyrrolidin-2-carboxamide], the EC50 at human GPR119 receptor is 0.07 nM. Moreover, on human GPR119 receptor, the “activity for human GPR119 receptor (in words)” value (shortened to “activity”) is “excellent activity”. In addition, the solubility is over 283 µg/mL in series [1] (setting [2]), over 283 µg/mL in series [1] (setting [3]), over 283 µg/mL in series [1] (setting [4]) and 54 µg/mL (≈ 95.3 µM) in series [1] (setting [5]).
In the case of `CC(C)(CN1CCC(COc2ccc(-c3ccc(C(=O)N4CCC[C@@]4(C)C(N)=O)c(F)c3)nc2)CC1)C(F)(F)F` [Compound 1269, (S)-1-(2-fluoro-4-(5-((1-(3,3,3-trifluoro-2,2-dimethylpropyl)piperidin-4-yl)methoxy)pyridin-2-yl)benzoyl)-2-methylpyrrolidin-2-carboxamide], at human GPR119 receptor, the EC50 amounted to 0.09 nM and the “activity” value was “excellent activity”.
With `CC(C)(F)CN1CCC(COc2ccc(-c3ccc(C(=O)N4C[C@H](O)C[C@@]4(C)C(N)=O)c(F)c3)cc2C#N)CC1` [Compound 1276, (2S,4R)-1-(3′-cyano-3-fluoro-4′-((1-(2-fluoro-2-methylpropyl)piperidin-4-yl)methoxy)biphenylcarbonyl)-4-hydroxy-2-methylpyrrolidin-2-carboxamide], the EC50 at human GPR119 receptor is 24 nM.
With `NC(=O)[C@@H]1C[C@@H](O)CN1C(=O)c1ccc(-c2ccc(OCC3CCN(CC4(C(F)(F)F)CCC4)CC3)cn2)cc1F` [Compound 1280, (2S,4R)-1-(2-fluoro-4-(5-((1-((1-(trifluoromethyl)cyclobutyl)methyl)piperidin-4-yl)methoxy)pyridin-2-yl)benzoyl)-4-hydroxypyrrolidin-2-carboxamide], on human GPR119 receptor, the EC50 is 38 nM and the “activity” value is “excellent activity”.
Take `NC(=O)[C@@H]1C[C@@H](O)CN1C(=O)c1ccc(-c2ccc(OCC3CCN(CC4(C(F)(F)F)CCC4)CC3)cn2)c(F)c1` [Compound 1286, (2S,4R)-1-(3-fluoro-4-(5-((1-((1-(trifluoromethyl)cyclobutyl)methyl)piperidin-4-yl)methoxy)pyridin-2-yl)benzoyl)-4-hydroxypyrrolidin-2-carboxamide]: at human GPR119 receptor, the EC50 amounted to 3 nM. The “activity” value at human GPR119 receptor is “excellent activity”. In addition, the solubility was over 289 µg/mL in series [1] (setting [2]), over 289 µg/mL in series [1] (setting [3]), over 289 µg/mL in series [1] (setting [4]) and 108 µg/mL (≈ 187 µM) in series [1] (setting [5]).
Consider `CCC(F)(CC)CN1CCC(COc2ccc(-c3ccc(C(=O)N4C[C@H](O)C[C@H]4C(N)=O)cc3F)nc2)CC1` [Compound 1287, (2S,4R)-1-(4-(5-((1-(2-ethyl-2-fluorobutyl)piperidin-4-yl)methoxy)pyridin-2-yl)-3-fluorobenzoyl)-4-hydroxypyrrolidin-2-carboxamide], for which the EC50 on human GPR119 receptor is 20 nM.
For `C[C@@]1(C(N)=O)C[C@@H](O)CN1C(=O)c1ccc(-c2ccc(OCC3CCN(CC4(C(F)(F)F)CCC4)CC3)cn2)cc1F` [Compound 1290, (2S,4R)-1-(2-fluoro-4-(5-((1-((1-(trifluoromethyl)cyclobutyl)methyl)piperidin-4-yl)methoxy)pyridin-2-yl)benzoyl)-4-hydroxy-2-methylpyrrolidin-2-carboxamide], on human GPR119 receptor, the EC50 amounted to 6 nM. Further, at human GPR119 receptor, the “activity” value was “excellent activity”. Moreover, the solubility in series [1] (setting [2]) is over 296 µg/mL; in series [1] (setting [3]) it was over 296 µg/mL; in series [1] (setting [4]), over 296 µg/mL; in series [1] (setting [5]), 102 µg/mL (≈ 172 µM).
With `CCC(F)(CC)CN1CCC(COc2ccc(-c3ccc(C(=O)N4C[C@H](O)C[C@@]4(C)C(N)=O)cc3F)nc2)CC1` [Compound 1292, (2S,4R)-1-(4-(5-((1-(2-ethyl-2-fluorobutyl)piperidin-4-yl)methoxy)pyridin-2-yl)-3-fluorobenzoyl)-4-hydroxy-2-methylpyrrolidin-2-carboxamide], the EC50 at human GPR119 receptor came out at 12 nM. Also, the solubility in series [1] (setting [2]), in series [1] (setting [3]), in series [1] (setting [4]) and in series [1] (setting [5]) was over 279 µg/mL throughout.
Take `CC(C)(CN1CCC(COc2ccc(-c3ccc(C(=O)N4C[C@H](O)C[C@@]4(C)C(N)=O)c(F)c3)nc2)CC1)C(F)(F)F` [Compound 1294, (2S,4R)-1-(2-fluoro-4-(5-((1-(3,3,3-trifluoro-2,2-dimethylpropyl)piperidin-4-yl)methoxy)pyridin-2-yl)benzoyl)-4-hydroxy-2-methylpyrrolidin-2-carboxamide]: the EC50 on human GPR119 receptor was determined as 19 nM. Moreover, the “activity” value on human GPR119 receptor is listed as “excellent activity”. Further, the solubility was over 290 µg/mL in series [1] (setting [2]), over 290 µg/mL in series [1] (setting [3]), 203 µg/mL (≈ 350 µM) in series [1] (setting [4]) and 52 µg/mL (≈ 89.6 µM) in series [1] (setting [5]).
In the case of `CC(C)(CN1CCC(COc2ccc(-c3ccc(C(=O)N4C[C@H](O)C[C@@]4(C)C(N)=O)c(F)c3)cn2)CC1)C(F)(F)F` [Compound 1295, (2S,4R)-1-(2-fluoro-4-(6-((1-(3,3,3-trifluoro-2,2-dimethylpropyl)piperidin-4-yl)methoxy)pyridin-3-yl)benzoyl)-4-hydroxy-2-methylpyrrolidin-2-carboxamide], on human GPR119 receptor, the EC50 was 18 nM and the “activity” value is reported as “excellent activity”.
In the same order, the values of `C[C@@]1(C(N)=O)CCCN1C(=O)c1ccc(-c2ccc(OCC3CCN(CC4(C(F)(F)F)CCC4)CC3)cn2)cc1F` [Compound 1297, (S)-1-(2-fluoro-4-(5-((1-((1-(trifluoromethyl)cyclobutyl)methyl)piperidin-4-yl)methoxy)pyridin-2-yl)benzoyl)-2-methylpyrrolidin-2-carboxamide] are 4 nM and “excellent activity”.
Turning to `CCC(F)(CC)CN1CCC(COc2ccc(-c3ccc(C(=O)N4CCC[C@@]4(C)C(N)=O)c(F)c3)nc2)CC1` [Compound 1299, (S)-1-(4-(5-((1-(2-ethyl-2-fluorobutyl)piperidin-4-yl)methoxy)pyridin-2-yl)-2-fluorobenzoyl)-2-methylpyrrolidin-2-carboxamide], at human GPR119 receptor, the EC50 worked out at 9 nM and the “activity” value is “excellent activity”.
With `CCC(F)(CC)CN1CCC(COc2ccc(-c3ccc(C(=O)N4C[C@H](O)C[C@@]4(C)C(N)=O)cc3)nc2)CC1` [Compound 1309, (2S,4R)-1-(4-(5-((1-(2-ethyl-2-fluorobutyl)piperidin-4-yl)methoxy)pyridin-2-yl)benzoyl)-4-hydroxy-2-methylpyrrolidin-2-carboxamide], the EC50 at human GPR119 receptor is 47 nM.
Same read-out and setting: in the case of `NC(=O)[C@@H]1C[C@@H](O)CN1C(=O)c1ccc(-c2ccc(OCC3CCN(CC4(C(F)(F)F)CCC4)CC3)nc2)cc1F` [Compound 1317, (2S,4R)-1-(2-fluoro-4-(6-((1-((1-(trifluoromethyl)cyclobutyl)methyl)piperidin-4-yl)methoxy)pyridin-3-yl)benzoyl)-4-hydroxypyrrolidin-2-carboxamide] it was 60 nM; in that of `CCC(F)(CC)CN1CCC(COc2ccc(-c3ccc(C(=O)N4C[C@H](O)C[C@@H]4C(N)=O)cc3F)cc2)CC1` [Compound 1321, (2R,4R)-1-(4′-((1-(2-ethyl-2-fluorobutyl)piperidin-4-yl)methoxy)-2-fluorobiphenylcarbonyl)-4-hydroxypyrrolidin-2-carboxamide], 53 nM; in that of `C[C@@]1(C(N)=O)C[C@@H](O)CN1C(=O)c1ccc(-c2ccc(OCC3CCN(CC4(C(F)(F)F)CCC4)CC3)nc2)cc1F` [Compound 1326, (2S,4R)-1-(2-fluoro-4-(6-((1-((1-(trifluoromethyl)cyclobutyl)methyl)piperidin-4-yl)methoxy)pyridin-3-yl)benzoyl)-4-hydroxy-2-methylpyrrolidin-2-carboxamide], 50 nM.

For the origin of these results see patent publication US9776987B2, “Amide derivatives for GPR119 agonist” (CHONG KUN DANG PHARMACEUTICAL CORP., priority 2013, dated 2017).
